Literature values in patent publication US4689323A, “Covalently bound heparin--antithrombin-III complex” (Miles Laboratories, Inc., priority 1983, dated 1987).

Legend:
[1] = Scientific Protein Labs., porcine intestines
[2] = tested on: plasma antithrombin-III ("AT-III"); settings: continuous intravenous infusion, thromboembolic patients

Substance: heparin sodium
- anticoagulant activity of the starting heparin [1]: 167.7 USP units/mg
- decrease in plasma antithrombin-III levels [2]: about 35%
